We go through six molecules from ChEMBL document CHEMBL2406977, “The discovery of PLK4 inhibitors: (E)-3-((1H-Indazol-6-yl)methylene)indolin-2-ones as novel antiproliferative agents” (J Med Chem, 2013).

Data set [1] is described as follows: Permeability of the compound at pH 7.4 by PAMPA. The data set is classed as ADME. Particulars: read-out: permeability.
The subject of another data set is HCC1954. Description: Antiproliferative activity against human HCC1954 cells assessed as growth inhibition after 5 days by SRB assay. The data set is classed as functional. The settings on record: HCC1954, 120 h. A general note: In SRB staining, fixed cells bind dye roughly in proportion to their protein.
A further data set deals with MDA-MB-231. Description: Antiproliferative activity against human MDA-MB-231 cells assessed as growth inhibition after 5 days by SRB assay. Particulars: MDA-MB-231, 120 h. The data set is classed as functional.
A further data set concerns SK-BR-3. Description: Antiproliferative activity against human SKBR3 cells assessed as growth inhibition after 5 days by SRB assay. Particulars: SK-BR-3, 120 h. The data set is classed as functional.
Data set [2] relates to MDA-MB-468. Description: Antiproliferative activity against human MDA-MB-468 cells assessed as growth inhibition after 5 days by SRB assay. The format is functional. Particulars: MDA-MB-468, 120 h.
A further data set has as its system MCF7. Put plainly: Antiproliferative activity against human MCF7 cells assessed as growth inhibition after 5 days by SRB assay. The format is functional. The settings on record: MCF7, 120 h.
Data set [3] concerns the target Serine/threonine-protein kinase PLK3 (Homo sapiens, UniProt Q9H4B4). Description: Inhibition of PLK3 (unknown origin) by FRET-based homogeneous assay.
Data set [4] concerns the target Serine/threonine-protein kinase PLK1 (Homo sapiens, UniProt P53350). Description: Inhibition of PLK1 (unknown origin) by FRET-based homogeneous assay.
In data set [5] the target is Serine/threonine-protein kinase PLK2 (Homo sapiens, UniProt Q9NYY3). Put plainly: Inhibition of PLK2 (unknown origin) by FRET-based homogeneous assay.
Data set [6] deals with T1, Serine/threonine-protein kinase PLK4 (Homo sapiens, UniProt O00444).
T1 sequence (O00444 whole entry): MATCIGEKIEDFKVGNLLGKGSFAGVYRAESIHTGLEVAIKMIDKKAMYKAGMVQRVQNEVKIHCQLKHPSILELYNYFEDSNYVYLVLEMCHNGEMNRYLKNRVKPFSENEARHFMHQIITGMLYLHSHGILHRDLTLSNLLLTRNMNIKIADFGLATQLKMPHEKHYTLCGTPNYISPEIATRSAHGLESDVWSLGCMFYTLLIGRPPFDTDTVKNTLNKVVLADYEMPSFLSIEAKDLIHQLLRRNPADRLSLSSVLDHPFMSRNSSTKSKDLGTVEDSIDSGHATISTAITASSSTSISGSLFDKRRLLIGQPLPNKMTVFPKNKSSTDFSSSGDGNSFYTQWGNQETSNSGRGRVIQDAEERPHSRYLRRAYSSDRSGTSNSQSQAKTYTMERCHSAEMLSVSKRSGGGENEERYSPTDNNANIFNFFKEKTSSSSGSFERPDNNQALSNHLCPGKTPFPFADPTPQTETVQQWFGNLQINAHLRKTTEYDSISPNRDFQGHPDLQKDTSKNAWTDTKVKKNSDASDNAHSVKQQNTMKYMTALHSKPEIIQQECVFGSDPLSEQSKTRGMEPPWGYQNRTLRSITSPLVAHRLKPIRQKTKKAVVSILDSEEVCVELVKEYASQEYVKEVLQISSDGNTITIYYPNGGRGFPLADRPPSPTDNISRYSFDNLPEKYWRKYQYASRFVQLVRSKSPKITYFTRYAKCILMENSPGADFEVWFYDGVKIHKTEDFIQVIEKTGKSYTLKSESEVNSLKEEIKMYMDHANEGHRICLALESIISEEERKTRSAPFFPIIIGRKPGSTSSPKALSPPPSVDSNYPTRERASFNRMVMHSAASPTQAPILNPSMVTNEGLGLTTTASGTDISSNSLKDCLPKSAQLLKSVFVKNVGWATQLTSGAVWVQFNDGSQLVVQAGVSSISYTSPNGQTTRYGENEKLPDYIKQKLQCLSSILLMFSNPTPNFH
Description: Inhibition of N-terminal GST-tagged human PLK4 (1 to 391 amino acids) expressed in Escherichia coli using TMB as substrate after 30 mins by indirect ELISA assay. In general terms: In an ELISA, binding on a coated surface is turned into a signal by an enzyme label.

For data set [7], the target named is T1, Serine/threonine-protein kinase PLK4. Description: Inhibition of human PLK4.
For the next data set, the target named is Cytochrome P450 2C9 (Homo sapiens, UniProt P11712). Description: Inhibition of CYP2C9 (unknown origin) using MFC as substrate after 45 mins by fluorescence assay. The format is ADME.
The target in a further data set is Cytochrome P450 2C19 (Homo sapiens, UniProt P33261). Put plainly: Inhibition of CYP2C19 (unknown origin) using MFC as substrate after 30 mins by fluorescence assay. The format is ADME.
For the next data set, the target named is T2, Cytochrome P450 1A2 (Homo sapiens, UniProt P05177).
T2 sequence (P05177 whole entry): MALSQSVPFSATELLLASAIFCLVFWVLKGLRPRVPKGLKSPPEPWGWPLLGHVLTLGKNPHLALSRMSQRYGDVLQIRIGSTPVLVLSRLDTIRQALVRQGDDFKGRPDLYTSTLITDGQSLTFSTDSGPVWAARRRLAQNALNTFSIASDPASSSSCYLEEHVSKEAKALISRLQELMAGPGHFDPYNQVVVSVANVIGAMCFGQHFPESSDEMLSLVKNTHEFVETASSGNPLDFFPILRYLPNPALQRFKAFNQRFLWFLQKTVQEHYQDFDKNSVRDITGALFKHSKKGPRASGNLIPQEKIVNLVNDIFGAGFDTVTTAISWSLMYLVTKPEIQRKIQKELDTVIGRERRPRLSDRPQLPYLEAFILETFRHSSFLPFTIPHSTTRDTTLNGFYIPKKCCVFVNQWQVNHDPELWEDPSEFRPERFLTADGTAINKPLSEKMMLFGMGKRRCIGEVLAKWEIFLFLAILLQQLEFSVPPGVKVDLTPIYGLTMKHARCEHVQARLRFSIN
Put plainly: Inhibition of CYP1A2 (unknown origin) using CEC as substrate after 15 mins by fluorescence assay. The data set is classed as ADME.

Another data set concerns the target Cytochrome P450 2D6 (Homo sapiens, UniProt P10635). Put plainly: Inhibition of CYP2D6 (unknown origin) using AMMC as substrate after 30 mins by fluorescence assay. The data set is classed as ADME.
A further data set addresses Cytochrome P450 3A4 (Homo sapiens, UniProt P08684). Put plainly: Inhibition of CYP3A4 (unknown origin) after 10 mins by fluorescence assay. The data set is classed as ADME.
For data set [8], the system named is MDA-MB-468. Description: Cell cycle arrest in human MDA-MB-468 cells assessed as accumulation of 16N peaks at 1 uM after 2 days by FACS analysis. The format is functional. A general note: In flow cytometry, cells or beads pass a laser one at a time.
Data set [9] relates to MDA-MB-468. Description: Cell cycle arrest in human MDA-MB-468 cells assessed as accumulation of 8N peaks at 1 uM after 2 days by FACS analysis. The data set is classed as functional.
In data set [10] the test system is MDA-MB-468. Put plainly: Cell cycle arrest in human MDA-MB-468 cells assessed as accumulation at G1 phase at 1 uM after 2 days by FACS analysis. The data set is classed as functional.
Data set [11] concerns MDA-MB-468. Description: Cell cycle arrest in human MDA-MB-468 cells assessed as accumulation of 16N peaks at 0.25 uM after 2 days by FACS analysis. The format is functional.
Data set [12] deals with MDA-MB-468. Description: Cell cycle arrest in human MDA-MB-468 cells assessed as accumulation at G1 phase at 0.25 uM after 2 days by FACS analysis. The format is functional.
Data set [13] concerns MDA-MB-468. Put plainly: Cell cycle arrest in human MDA-MB-468 cells assessed as accumulation of 8N peaks at 0.25 uM after 2 days by FACS analysis. The format is functional.
Data set [14] deals with MDA-MB-468. Put plainly: Cell cycle arrest in human MDA-MB-468 cells assessed as accumulation of 16N peaks at 0.5 uM after 2 days by FACS analysis. The format is functional.
Data set [15] relates to MDA-MB-468. Put plainly: Cell cycle arrest in human MDA-MB-468 cells assessed as accumulation of 8N peaks at 0.5 uM after 2 days by FACS analysis. The data set is classed as functional.
Data set [16] concerns MDA-MB-468. Description: Cell cycle arrest in human MDA-MB-468 cells assessed as accumulation at G1 phase at 0.5 uM after 2 days by FACS analysis. The data set is classed as functional.

Chain of Cytochrome P450 2D6 (P10635 whole entry): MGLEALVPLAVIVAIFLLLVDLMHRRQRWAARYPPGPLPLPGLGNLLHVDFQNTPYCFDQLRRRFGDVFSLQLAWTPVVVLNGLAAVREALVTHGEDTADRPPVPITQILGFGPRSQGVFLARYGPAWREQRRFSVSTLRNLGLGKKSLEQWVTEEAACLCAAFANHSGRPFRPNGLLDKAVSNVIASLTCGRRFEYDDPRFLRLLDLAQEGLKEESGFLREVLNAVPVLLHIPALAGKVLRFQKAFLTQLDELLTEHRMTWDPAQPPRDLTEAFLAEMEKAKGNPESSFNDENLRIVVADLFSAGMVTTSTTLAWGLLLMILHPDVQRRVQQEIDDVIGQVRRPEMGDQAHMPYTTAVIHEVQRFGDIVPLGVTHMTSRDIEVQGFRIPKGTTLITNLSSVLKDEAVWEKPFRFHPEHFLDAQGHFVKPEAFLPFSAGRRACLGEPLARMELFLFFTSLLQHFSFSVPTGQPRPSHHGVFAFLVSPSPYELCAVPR
Chain of Serine/threonine-protein kinase PLK3 (Q9H4B4 whole entry): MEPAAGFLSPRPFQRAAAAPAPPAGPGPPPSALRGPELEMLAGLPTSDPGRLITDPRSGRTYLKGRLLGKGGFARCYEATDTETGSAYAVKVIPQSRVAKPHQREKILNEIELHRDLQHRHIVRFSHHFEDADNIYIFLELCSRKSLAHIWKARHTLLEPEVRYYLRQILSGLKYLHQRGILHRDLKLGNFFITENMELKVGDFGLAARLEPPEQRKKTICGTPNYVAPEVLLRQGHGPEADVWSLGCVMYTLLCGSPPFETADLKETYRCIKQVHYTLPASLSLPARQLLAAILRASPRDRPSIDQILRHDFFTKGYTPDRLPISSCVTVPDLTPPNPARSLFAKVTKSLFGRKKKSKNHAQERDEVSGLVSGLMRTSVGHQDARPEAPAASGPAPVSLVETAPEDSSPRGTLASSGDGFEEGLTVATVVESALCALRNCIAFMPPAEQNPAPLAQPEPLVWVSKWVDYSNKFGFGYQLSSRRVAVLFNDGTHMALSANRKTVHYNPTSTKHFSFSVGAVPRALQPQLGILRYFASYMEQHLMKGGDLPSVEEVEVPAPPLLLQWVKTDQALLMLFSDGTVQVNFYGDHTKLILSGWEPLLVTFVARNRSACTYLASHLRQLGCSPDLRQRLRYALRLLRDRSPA
Chain of Cytochrome P450 2C19 (P33261 whole entry): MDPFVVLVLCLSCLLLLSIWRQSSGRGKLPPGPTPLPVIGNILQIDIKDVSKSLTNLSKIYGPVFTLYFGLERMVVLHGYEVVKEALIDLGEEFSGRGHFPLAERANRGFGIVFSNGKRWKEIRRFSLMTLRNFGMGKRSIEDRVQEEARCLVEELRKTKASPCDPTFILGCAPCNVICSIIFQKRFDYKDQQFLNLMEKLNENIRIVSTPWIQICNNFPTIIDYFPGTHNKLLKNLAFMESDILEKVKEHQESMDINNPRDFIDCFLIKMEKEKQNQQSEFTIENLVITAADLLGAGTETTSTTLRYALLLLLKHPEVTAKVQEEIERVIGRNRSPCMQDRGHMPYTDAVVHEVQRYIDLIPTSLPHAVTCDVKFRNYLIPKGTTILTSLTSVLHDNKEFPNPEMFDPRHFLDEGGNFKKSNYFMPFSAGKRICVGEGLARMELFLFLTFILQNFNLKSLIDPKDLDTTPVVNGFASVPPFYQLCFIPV
Chain of Serine/threonine-protein kinase PLK2 (Q9NYY3 whole entry): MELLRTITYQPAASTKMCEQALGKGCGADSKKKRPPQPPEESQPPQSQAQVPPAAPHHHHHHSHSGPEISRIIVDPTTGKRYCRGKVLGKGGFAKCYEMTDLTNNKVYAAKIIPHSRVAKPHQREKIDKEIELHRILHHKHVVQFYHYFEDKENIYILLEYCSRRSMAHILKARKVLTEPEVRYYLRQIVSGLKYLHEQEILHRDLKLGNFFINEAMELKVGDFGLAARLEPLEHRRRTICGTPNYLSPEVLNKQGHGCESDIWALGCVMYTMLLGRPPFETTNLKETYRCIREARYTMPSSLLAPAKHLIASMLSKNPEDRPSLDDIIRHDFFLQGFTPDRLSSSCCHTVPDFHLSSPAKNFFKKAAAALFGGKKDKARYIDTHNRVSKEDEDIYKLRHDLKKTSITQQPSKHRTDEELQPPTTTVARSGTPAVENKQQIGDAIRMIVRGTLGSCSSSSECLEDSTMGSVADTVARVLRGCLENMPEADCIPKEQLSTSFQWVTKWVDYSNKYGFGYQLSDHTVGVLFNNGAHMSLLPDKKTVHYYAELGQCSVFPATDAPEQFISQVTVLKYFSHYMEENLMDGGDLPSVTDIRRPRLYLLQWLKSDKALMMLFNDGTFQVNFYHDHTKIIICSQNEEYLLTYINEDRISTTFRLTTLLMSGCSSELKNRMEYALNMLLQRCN
Chain of Cytochrome P450 2C9 (P11712 whole entry): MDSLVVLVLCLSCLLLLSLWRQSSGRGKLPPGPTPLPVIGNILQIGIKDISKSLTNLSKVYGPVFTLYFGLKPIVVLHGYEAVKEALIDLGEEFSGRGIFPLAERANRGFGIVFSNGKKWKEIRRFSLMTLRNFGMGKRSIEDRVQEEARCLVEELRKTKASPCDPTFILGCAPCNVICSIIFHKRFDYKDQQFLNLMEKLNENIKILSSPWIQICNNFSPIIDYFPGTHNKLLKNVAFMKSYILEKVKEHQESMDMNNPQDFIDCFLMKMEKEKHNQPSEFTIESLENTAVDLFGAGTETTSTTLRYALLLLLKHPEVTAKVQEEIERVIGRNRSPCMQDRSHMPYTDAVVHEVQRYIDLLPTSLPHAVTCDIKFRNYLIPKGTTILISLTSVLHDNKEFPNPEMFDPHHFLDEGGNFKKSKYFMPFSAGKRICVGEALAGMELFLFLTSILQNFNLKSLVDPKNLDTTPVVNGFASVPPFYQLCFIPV
Chain of Cytochrome P450 3A4 (P08684 whole entry): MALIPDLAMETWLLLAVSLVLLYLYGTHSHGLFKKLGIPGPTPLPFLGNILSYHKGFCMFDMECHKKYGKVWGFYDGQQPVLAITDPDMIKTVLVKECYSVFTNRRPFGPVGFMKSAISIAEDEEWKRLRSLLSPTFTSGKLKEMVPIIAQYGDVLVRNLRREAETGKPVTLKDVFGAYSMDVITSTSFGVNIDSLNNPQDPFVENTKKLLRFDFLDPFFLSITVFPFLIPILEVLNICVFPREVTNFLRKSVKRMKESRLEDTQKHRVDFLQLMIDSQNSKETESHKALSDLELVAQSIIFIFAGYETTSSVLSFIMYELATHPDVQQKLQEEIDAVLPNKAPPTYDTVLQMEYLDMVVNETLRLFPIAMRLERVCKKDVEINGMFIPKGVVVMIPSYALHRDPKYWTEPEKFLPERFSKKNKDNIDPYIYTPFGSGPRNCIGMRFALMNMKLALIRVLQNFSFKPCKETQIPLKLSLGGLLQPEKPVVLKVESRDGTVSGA
Chain of Serine/threonine-protein kinase PLK1 (P53350 whole entry): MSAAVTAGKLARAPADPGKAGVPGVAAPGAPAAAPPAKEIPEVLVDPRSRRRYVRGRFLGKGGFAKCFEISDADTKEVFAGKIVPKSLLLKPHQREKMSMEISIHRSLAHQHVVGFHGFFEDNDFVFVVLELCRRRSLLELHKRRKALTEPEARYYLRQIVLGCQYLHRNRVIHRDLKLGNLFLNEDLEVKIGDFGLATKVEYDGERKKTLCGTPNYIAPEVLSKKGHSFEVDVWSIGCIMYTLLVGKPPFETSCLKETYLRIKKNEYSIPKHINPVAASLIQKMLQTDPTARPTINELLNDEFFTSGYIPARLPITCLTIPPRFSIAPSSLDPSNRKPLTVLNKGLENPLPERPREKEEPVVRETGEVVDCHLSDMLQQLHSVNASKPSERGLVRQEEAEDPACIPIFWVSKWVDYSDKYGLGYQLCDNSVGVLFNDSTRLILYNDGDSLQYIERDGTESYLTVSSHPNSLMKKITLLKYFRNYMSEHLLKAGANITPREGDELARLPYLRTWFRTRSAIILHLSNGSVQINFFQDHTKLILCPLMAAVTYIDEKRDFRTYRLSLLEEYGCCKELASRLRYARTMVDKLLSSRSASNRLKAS

`O=C1Nc2ccccc2/C1=C\c1ccc2c(/C=C/c3ccc(C(=O)O)cc3)n[nH]c2c1`: the Papp in data set [1] worked out at 2.1 ×10⁻⁶ cm/s. The GI50 with HCC1954 is 2000 nM; in the data set on MDA-MB-231, > 50000 nM; in the data set with SK-BR-3, 16000 nM; in the data set on MDA-MB-468 [2], 800 nM; with MCF7, 6800 nM. Besides, the half-inhibitory concentration (IC50) in data set [3] was > 10000 nM; in data set [4], > 10000 nM; in [5] it was > 10000 nM; in data set [6] it was 0.82 nM.
In data set [7], `COc1cc2c(cc1F)C(c1ccccc1Cl)=Nc1c(n[nH]c1C)N2` [RG-1530] gave a Ki of 11 nM.
`CN1CCN(c2ccc(/C=C/c3n[nH]c4cc(/C=C5/C(=O)Nc6ccccc65)ccc34)cn2)CC1`: the Papp in [1] was determined as 335 ×10⁻⁶ cm/s. The IC50 on Cytochrome P450 2C9 was 900 nM; against Cytochrome P450 2C19, 440 nM; against Cytochrome P450 1A2 it was 10000 nM; against Cytochrome P450 2D6, 10000 nM; on Cytochrome P450 3A4, 800 nM; in [3] it was > 10000 nM. Further, the figures for the IC50 in [4], in data set [5] and in data set [6] were > 10000 nM, > 10000 nM and 1.4 nM, respectively. Further, the GI50 in the data set with HCC1954 is 370 nM; in the data set on MDA-MB-231, < 10 nM; in the data set with SK-BR-3, 1100 nM; in the data set on MDA-MB-468 [2], 20 nM; with MCF7 it was 20 nM.
In [7], `COCCOc1ccc2cc1OCC(=O)N(C)CCCN(C)Cc1c[nH]c3ncnc(c13)N2` yielded a Ki of 25 nM.
Consider `CN(C)Cc1ccc(/C=C/c2n[nH]c3cc(/C=C4/C(=O)Nc5ccccc54)ccc23)cc1`, for which, in [1], the Papp was 276 ×10⁻⁶ cm/s. Moreover, the IC50 on Cytochrome P450 2C9 is 1300 nM; against Cytochrome P450 2C19 it was 1000 nM; on Cytochrome P450 1A2, > 10000 nM; on Cytochrome P450 2D6, 9000 nM; against Cytochrome P450 3A4, 10000 nM; in data set [3], > 10000 nM. For the same molecule, the values for the IC50 in data set [4], in [5] and in data set [6] were > 10000 nM, > 10000 nM and 2 nM, respectively. The GI50 in the data set with HCC1954 stood at 480 nM; in the data set on MDA-MB-231 it was 2 nM; in the data set with SK-BR-3 it was 1900 nM; in the data set with MDA-MB-468 [2] it was 10 nM; in the data set on MCF7, 10 nM.
As for `O=C1Nc2ccccc2/C1=C\c1ccc2c(/C=C/c3ccncc3)n[nH]c2c1`, in [1], the Papp came out at 197 ×10⁻⁶ cm/s. Besides, the IC50 is 20 nM against Cytochrome P450 2C9; 130 nM at Cytochrome P450 2C19; > 10000 nM at Cytochrome P450 1A2; > 10000 nM against Cytochrome P450 2D6; 2700 nM at Cytochrome P450 3A4; > 10000 nM in data set [3]. For the same molecule, the IC50 in [4] is > 10000 nM; in data set [5], > 10000 nM; in data set [6], 5.4 nM. Further, the Activity was 5.2% in the data set with MDA-MB-468 [8]; 32.5% in the data set with MDA-MB-468 [9]; 24.8% in the data set on MDA-MB-468 [10]; 1.7% in the data set on MDA-MB-468 [11]; 11.2% in the data set with MDA-MB-468 [12]; 11.85% in the data set on MDA-MB-468 [13]. Moreover, the Activity was 6% in the data set on MDA-MB-468 [14], 34.3% with MDA-MB-468 [15] and 20.8% in the data set on MDA-MB-468 [16]. The GI50 with HCC1954 turned out to be 930 nM; in the data set with MDA-MB-231, 19000 nM; in the data set on SK-BR-3 it was 25000 nM; in the data set with MDA-MB-468 [2], 310 nM; in the data set on MCF7 it was 160 nM.

One may read the GI50 as the concentration at which growth is held to half of that of the control. In general, IC50 refers to the concentration that gives 50% inhibition. A lower IC50 goes with higher potency. A word on the Ki: it is a dissociation constant, usually derived from enzyme kinetics or from competition with a known ligand. High values mean weaker binding, low ones tighter binding.
